In brackets after ≈: the same amount, converted by molar mass. Like-named read-outs stand apart in the source and are kept apart here.
Assays:
[1] = tested on: Herpes simplex virus (HSV); assay type: cell-based
Method: […]. The cardiac glycosides Digoxin, Digitoxin, Lanoxin and Strophanthin G were also tested.
Using Herpes simplex virus (HSV), 50% plaque inhibitory dose (1D50) were established using the standard plaque inhibition assay. Various solvents were required to facilitate testing and these were sometimes detrimental to tissue culture, depending upon their concentration. […]; experimental conditions in which solvent toxicity was excluded.
(§1) These compounds (Acetazolamide, Tolbutamide and Hydrochiorthiazide) were further tested using alternative solvents in the same test system (ie the plaque inhibition assay) and others (Bumetanide, Torasemide, Tolbutamide and Hydrochlothiazide) in a more sensitive test for ICVT activity in which the effects on virus yields were determined.

[2] = tested on: Herpes simplex virus (HSV); test: Comparative ICVT-ivities of Digoxin, Digitoxin and Lanoxin; assay type: cell-based; settings: for ID50: 250 ug per ml stock solutions, powder in 70% ethanol, Lanoxin in 10% ethanol; for ICVT-ivity of saturated solution compared with standard: saturated solutions in 90% ethanol
Herpes simplex virus = test: 50% plaque inhibitory concentration, Herpes simplex virus in MRC5
[3] = Drug release from Glue 1 mass-ratio patches into mobile phase
MRC5 cells [4] = test: MRC5 cell replication; settings: Furosemide 1.0 mg/ml; Digoxin 0.05 ug/ml; both at VZV ID50 concentrations; 72 hours
[5] = Diffusional release of D and F from Collodions; assay type: physicochemical
Method: Drug mix (for composition see table 2) 0.02 g (a stock was made) was weighted on an analytical balance (accurate to 5 decimal places) and added directly to 10 ml of Collodion and 10 ml of ethanol in a McCartney bottle. The molar ratios used were F:D; 1:1, 1:2.5 (2:5) and 1:10 because a smaller amount of drug mix was used, compared to the drug-in-adhesive and this allowed measurable amounts of F to be used. Each of the McCartney bottles was vortexed for three minutes and left to rotate on a blood serum rotator overnight, to ensure that the mixture was homogeneous and that any air bubbles present had dispersed. Control Collodions were also prepared by the same method, however, no drug mix was added.
Different molar ratios of the two drugs were used to determine affect upon release rate and the extent of the release of each drug. The Collodion, 200 μl, was dispensed to the bottom of general 7 ml glass screw cap vials using a Gilson Pipette and left to dry for three hours. Then 2 ml of dissolution medium, again de-gassed EtOH/water 10:90, was added to each vial. The amount of receptor phase sampled and replenished was 200 μl, with a total of five replicates performed for each treatment.
The injection volume of each sample was 20 μl. […] Data were acquired using Agilent software.

[6] = cited from earlier work
[7] = tested on: Varicella Zoster Virus (Ellen strain)
[8] = tested on: type 2 herpes simplex strain 3345; test: Inhibition of HSV2 replication in African green monkey kidney cells (Example 3); assay type: cell-based, herpes simplex virus; settings: for inhibition at 15 µg/mL: Digoxin 15 mcg/ml; for inhibition at 15 µg/mL / inhibition at 30 µg/mL: Furosemide 0 mg/ml; for inhibition at 30 µg/mL: Digoxin 30 mcg/ml; for inhibition at 500 µg/mL / inhibition at 1000 µg/mL: Digoxin 0 mcg/ml, read-out: Inhibition of virus replication; for inhibition at 500 µg/mL: Furosemide 0.5 mg/ml; for inhibition at 1000 µg/mL: Furosemide 1.0 mg/ml
Description: The compositions were applied to different types of vero cells (African green monkey kidney cells and BHK1 cells) and infected with type 2 herpes simplex virus (strains 3345 and 180) at low, intermediate, and high multiplicities of infection (MOI). Inhibition of virus replication was scored on the scale:
The following results were obtained using African green monkey kidney cells and type 2 herpes simplex strain 3345: […]

Cytomegalovirus = test: 50% plaque inhibitory concentration, Cytomegalovirus in MRC5
[9] = 72 hours
Method: The receptor fluid was stirred continuously to ensure a homogenous receptor solution.
The drug that accumulated in the skin was also measured. The drug that was present in a 2 cm diameter cross section of skin was calculated for all four formulations.

Varicella-Zoster virus = test: 50% plaque inhibitory concentration, Varicella-Zoster virus in MRC5
[10] = Solubility of the drugs in a range of solvents
Method: A study was performed that measure the solubility of the drugs in a range of solvents.

[11] = Drug permeation through porcine ear skin (Franz diffusion cells)
[12] = patches F:D 1:1 across pig skin
Method: The ears were washed under running water and full-thickness dorsal skin was separated from the cartilage via blunt dissection using a scalpel, then hair was removed using an electric razor. The skin was cut into samples of approximately 2 cm^2 and visually inspected to ensure that each piece was free from abrasions and blood vessels. Specimens were then stored in a crease free state on aluminium foil at −20° C. until required.
The skin samples were removed from the freezer and left to fully defrost. The donor and receptor compartments of Franz-type diffusion cells (see FIG. 13) were greased, to provide a tight seal and prevent any leakage from the receptor phase. The polymer-lined paper was removed from the patches to expose one side and firmly pressed centrally onto the surface of each piece of skin. After adhesion was established, the skin was mounted onto the flange of a receptor compartment (nominal volume 2.5 ml) of the diffusion sell, ensuring that the patch was placed directly over the flange aperture. […]
D and F were detected using an ultraviolet (UV) detector set at wavelength 220 nm. […]
Chromatogram peaks were integrated manually, and the data corrected for dilution effects. Cumulative release was determined and plotted against the square route of time to determine release rates. Cumulative permeation data were determined and plotted against time to order to obtain flux. […]

MRC5 cells [13] = test: MRC5 cell morphology (phase contrast microscopy); settings: Furosemide 1.0 mg/ml; Digoxin 0.05 ug/ml; combined dosage at individual ID 50; 72 hours
[14] = Diffusional release of D and F from drug-in-adhesive patches; assay type: physicochemical
MRC5 cells [15] = settings: uninfected cells; drug(s) at VZV ID 50 concentrations
Adenovirus = test: 50% plaque inhibitory concentration, Adenovirus in A549; settings: unidentified adenovirus
[16] = tested on: Herpes simplex virus (HSV); test: HSV virus yield test for ICVT activity; assay type: cell-based
Method: as §1

[17] = Human alphaherpesvirus 2, read-out: Inhibition of virus replication, HIGH MOI HSV2
[18] = Human alphaherpesvirus 2, read-out: Inhibition of virus replication, LOW MOI HSV2
[19] = Human alphaherpesvirus 2, HIGH MOI HSV2
[20] = Human alphaherpesvirus 2, INT. MOI HSV2
[21] = Human alphaherpesvirus 2, LOW MOI HSV2

## CC(=O)Nc1nnc(S(N)(=O)=O)s1 [Acetazolamide]
[1]; HSV plaque inhibition assay
  ICVT activity (in words): borderline

## C[C@H]1O[C@@H](O[C@H]2[C@@H](O)C[C@H](O[C@H]3[C@@H](O)C[C@H](O[C@H]4CC[C@@]5(C)[C@H](CC[C@@H]6[C@@H]5CC[C@]5(C)[C@@H](C7=CC(=O)OC7)CC[C@]65O)C4)O[C@@H]3C)O[C@@H]2C)C[C@H](O)[C@@H]1O [Digitoxin]
[1]; HSV plaque inhibition assay
  ICVT activity (in words): potent ICVT activity
[2]
  ID50: 30 ng per ml
  ICVT-ivity of saturated solution compared with standard: more effective than Digoxin

## C[C@H]1O[C@@H](O[C@H]2[C@@H](O)C[C@H](O[C@H]3[C@@H](O)C[C@H](O[C@H]4CC[C@@]5(C)[C@H](CC[C@@H]6[C@@H]5C[C@@H](O)[C@]5(C)[C@@H](C7=CC(=O)OC7)CC[C@]65O)C4)O[C@@H]3C)O[C@@H]2C)C[C@H](O)[C@@H]1O [Digoxin]
Herpes simplex virus; MRC5, read-out: Digixin IC50
  IC50: 0.025 µg/mL (≈ 0.032 µM)
[3]
  permeation coefficient for the patch: 0.16 ×10⁻⁶ cm/s
MRC5 cells [4]
  uninfected MRC5 cell replication: replicated to normal yields
[5]; from Collodion after 24 hr
  maximal dose of digoxin released: ~34.01 μg cm^−2
[6]; in diluted (50%) alcohol and in chloroform
  solubility: slightly soluble
[6]; in pyridine
  solubility: freely soluble
[6]; in water and in ether
  solubility: practically insoluble
[7]
  inhibition: ~50%
[8]; [17]
  inhibition at 15 µg/mL: 0%
  inhibition at 30 µg/mL: 0%
[8]; Human alphaherpesvirus 2, read-out: Inhibition of virus replication, INT. MOI HSV2
  inhibition at 15 µg/mL: 0%
[8]; [18]
  inhibition at 15 µg/mL: 0%
  inhibition at 30 µg/mL: 60%
[1]
  ICVT activity (in words): potent ICVT activity
Cytomegalovirus; Human betaherpesvirus 5, MRC5, read-out: Digixin IC50
  IC50: 0.02 µg/mL (≈ 0.0256 µM)
[9]
  concentration at which the skin was saturated: 12.73 μg/cm^2
[9]; 2 cm diameter skin section
  concentration at which the skin was saturated: 40 ug over 3.14 cm^2
[2]
  ID50: 60 ng per ml
  ICVT-ivity of saturated solution compared with standard: as effective as Lanoxin
Varicella-Zoster virus; Human alphaherpesvirus 3, MRC5, read-out: Digixin IC50
  IC50: 0.05 µg/mL (≈ 0.064 µM)
[10]; Solvent Methanol
  solubility: 8200 µg/mL (≈ 10500 µM)
[10]; organic solvent or mixture, Solubility, Solvent Ethanol
  solubility: 5080 µg/mL (≈ 6500 µM)
[10]; organic solvent or mixture, Solubility, Solvent Ethyl acetate
  solubility: 20400 µg/mL (≈ 26100 µM)
[11]; for flux of 1.04 μg per cm^2 per hour (25 μg per day per cm^2)
  loading dose required: 6004.5 μg per cm^3
[11]; from plot of patch concentration vs steady state flux through skin
  initial concentration within the patch for the flux to be greater than zero: 804.5 µg/mL
[12]
  Apparent flux maximum: 3.499 μgcm^−2 h^−1
[12]; % of loading
  Q24 permeation %: 0.12%
Feline herpesvirus; Feline herpes virus, drug(s) at IC50, No Drug 50
  Virus particles per cell: 0.75
Feline herpesvirus; feline herpesvirus, drug at IC50
  remaining low level of virus replication: 0.5%
Feline herpesvirus; feline herpesvirus, drug(s) at IC50
  production of infectious virus reduced by: 98.5%
MRC5 cells [13]
  effect on MRC5 cell morphology: no adverse effect on cell morphology
[14]
  maximum mass/area of digoxin released (maximal dose): ~136.18 μgcm^−2
MRC5 cells [15]
  MRC5 cell metabolism (MTT assay): normal levels of metabolism
Collodion
  mass/area that permeated the skin: 8.02 μg cm^−2
Collodion F:D 1:1 across pig skin
  Apparent maximum flux: 0.313 μgcm^−2 h^−1
Collodion F:D 1:1 across pig skin, % of loading
  Q24 permeation %: 5.39%
Collodion, calculated between 12-24 hr
  AMF: 0.313 μg cm^−2 h^−1
Adenovirus; A549, read-out: Digixin IC50
  IC50: 0.015 µg/mL (≈ 0.0192 µM)

## NS(=O)(=O)c1cc(C(=O)O)c(NCc2ccco2)cc1Cl [Furosemide, 4-chloro-N-furfuryl-5-sulfamoylanthranilic acid]
Herpes simplex virus; MRC5, read-out: Furosemide IC50
  IC50: 600 µg/mL (≈ 1810 µM)
[5]; from Collodion after 48 hr
  Maximal dose released (furosemide): ~6.02 μg cm^−2
[8]; [19]
  inhibition at 500 µg/mL: 0%
  inhibition at 1000 µg/mL: 40%
[8]; [20]
  inhibition at 500 µg/mL: 20%
  inhibition at 1000 µg/mL: 60%
[8]; [21]
  inhibition at 500 µg/mL: 20%
  inhibition at 1000 µg/mL: 60%
[1]; HSV plaque inhibition assay
  ICVT activity (in words): potent ICVT activity
Cytomegalovirus; Human betaherpesvirus 5, MRC5, read-out: Furosemide IC50
  IC50: 600 µg/mL (≈ 1810 µM)
Varicella-Zoster virus; Human alphaherpesvirus 3, MRC5, read-out: Furosemide IC50
  IC50: 500 µg/mL (≈ 1510 µM)
Adenovirus; A549, read-out: Furosemide IC50
  IC50: 300 µg/mL (≈ 907 µM)

## NS(=O)(=O)c1cc2c(cc1Cl)NCNS2(=O)=O [Hydrochiorothiazide, Hydrochlorothiazide]
[1]; HSV plaque inhibition assay
  ICVT activity (in words): borderline
[16]; Solvent: NaOH 1% aqueous 10 mg/ml
  concentration at which HSV yield reduced to zero: HSV yield reduced to zero at 600 ug/ml

## C[C@@H]1O[C@@H](O[C@H]2C[C@@H](O)[C@]3(CO)[C@H]4[C@H](O)C[C@]5(C)[C@@H](C6=CC(=O)OC6)CC[C@]5(O)[C@@H]4CC[C@]3(O)C2)[C@H](O)[C@H](O)[C@H]1O [Strophanthin G]
[1]; 1 mg/ml, Solvent: Aqueous
  remark on toxicity at the HSV Plaque ID50: Cytotoxic

## CCCCNC(=O)NS(=O)(=O)c1ccc(C)cc1 [Tolbutamide]
[1]; HSV plaque inhibition assay
  ICVT activity (in words): borderline
[16]; Solvent: PEG 10 mg/ml
  concentration at which HSV yield reduced to zero: HSV yield reduced to zero 300 μg/ml
[16]; Solvent: PG 10 mg/ml
  concentration at which HSV yield reduced to zero: HSV yield reduced to zero 300 μg/ml

## Cc1cccc(Nc2ccncc2S(=O)(=O)NC(=O)NC(C)C)c1 [Torasemide]
[16]; at 90 μg/ml, Solvent: NaOH 1% aqueous 5 mg/ml
  HSV yield: HSV yield unaffected at 90 μg/ml
